Drawing on ChEMBL document CHEMBL3867465, “Gastroprotective activity of synthetic coumarins: Role of endogenous prostaglandins, nitric oxide, non-protein sulfhydryls and vanilloid receptors” (2016), this text covers Activity for 23 molecules.

Common to all, as to type: functional, Stomach
For assay [1], the system named is Mus musculus. As to the kind of experiment: Gastroprotective activity in Swiss albino mouse assessed as reduction in HCl/EtOH-induced gastric lesions at 20 mg/kg, po pretreated for 50 mins followed by HCl/EtOH challenge measured after 1 hr. More on the design: scale not given: the % may be the effect or the level left.
For assay [2], the system named is Mus musculus. Briefly: Gastroprotective activity in Swiss albino mouse assessed as reduction in HCl/EtOH-induced gastric lesions by measuring lesion index at 100 mg/kg, po pretreated for 50 mins followed by HCl/EtOH challenge measured after 1 hr (reference value: 38.8 +/- 1.6 millimeter).
The test system of assay [3] is Mus musculus. As to the kind of experiment: Gastroprotective activity in Swiss albino mouse assessed as reduction in HCl/EtOH-induced gastric lesions by measuring lesion index at 30 mg/kg, sc pretreated followed by HCl/EtOH challenge measured after 1 hr (reference value: 38.8 +/- 1.6 millimeter).
Assay [4] deals with Mus musculus. Briefly: Gastroprotective activity in Swiss albino mouse assessed as reduction in HCl/EtOH-induced gastric lesions by measuring lesion index at 70 mg/kg, ip pretreated followed by HCl/EtOH challenge measured after 1 hr (reference value: 38.8 +/- 1.6 millimeter).
The subject of assay [5] is Mus musculus. Briefly: Gastroprotective activity in Swiss albino mouse assessed as reduction in HCl/EtOH-induced gastric lesions by measuring lesion index at 10 mg/kg, sc pretreated followed by HCl/EtOH challenge measured after 1 hr (reference value: 38.8 +/- 1.6 millimeter).
The subject of assay [6] is Mus musculus. As to the kind of experiment: Gastroprotective activity in Swiss albino mouse assessed as reduction in HCl/EtOH-induced gastric lesions by measuring lesion index at 20 mg/kg, po pretreated for 50 mins followed by HCl/EtOH challenge measured after 1 hr in presence of PG synthesis inhibitor indomethacin (reference value: 38.8 +/- 1.6 millimeter).
Assay [7] deals with Mus musculus. Briefly: Gastroprotective activity in Swiss albino mouse assessed as reduction in HCl/EtOH-induced gastric lesions by measuring lesion index at 20 mg/kg, po pretreated for 50 mins followed by HCl/EtOH challenge measured after 1 hr in presence of sulfhydryl blocker N-ethylmaleimide (reference value: 38.8 +/- 1.6 millimeter).
Assay [8] has as its system Mus musculus. As to the kind of experiment: Gastroprotective activity in Swiss albino mouse assessed as reduction in HCl/EtOH-induced gastric lesions by measuring lesion index at 20 mg/kg, po pretreated for 50 mins followed by HCl/EtOH challenge measured after 1 hr in presence of NO synthase inhibitor NG-nitro-L-arginine methyl ester (reference value: 38.8 +/- 1.6 millimeter).

The subject of assay [9] is Mus musculus. Briefly: Gastroprotective activity in Swiss albino mouse assessed as reduction in HCl/EtOH-induced gastric lesions by measuring lesion index at 20 mg/kg, po pretreated for 50 mins followed by HCl/EtOH challenge measured after 1 hr in presence of vanilloid receptor antagonist ruthenium red (reference value: 38.8 +/- 1.6 millimeter).
Assay [10] deals with Mus musculus. Briefly: Gastroprotective activity in Swiss albino mouse assessed as reduction in HCl/EtOH-induced gastric lesions by measuring lesion index at 20 mg/kg, po pretreated for 50 mins followed by HCl/EtOH challenge measured after 1 hr (reference value: 38.8 +/- 1.6 millimeter).

As for `O=C(O)c1cc2ccc(O)cc2oc1=O`, the Activity with Mus musculus [1] was 60%.

For the molecule `O=C(O)Cc1cc(=O)oc2cc(O)ccc12`, the Activity with Mus musculus [1] is 68%. With `CC(=O)c1cc2ccc(O)cc2oc1=O`, the Activity in the assay with Mus musculus [1] is given as 15%. For the molecule `CC(=O)c1cc2cccc(O)c2oc1=O`, the Activity in the assay on Mus musculus [1] was found to be 41%. The same measure, in the same setting: to `CCOC(=O)c1cc2cccc(O)c2oc1=O` belongs 15%; to `O=c1cc(CCl)c2ccc(O)cc2o1`, 57%; to `O=c1cc(CN2CCN(CCO)CC2)c2ccc(O)cc2o1`, 65%. Regarding `O=C(Oc1ccccc1)c1cc2ccc(O)cc2oc1=O`, in the assay on Mus musculus [1], the Activity turned out to be 63%. As for `CCOC(=O)c1cc2cccc(OC)c2oc1=O`, in the assay on Mus musculus [1], the Activity is recorded as 0%. The same measure, in the same setting: to `CNCc1cc(=O)oc2cc(O)ccc12` belongs 49%; to `CCOC(=O)c1cc2ccccc2oc1=O`, 35%. Consider `O=c1cc(CCl)c2c(O)cc(O)cc2o1`, for which the Activity with Mus musculus [1] turned out to be 42%. In the case of `CC(=O)c1cc2ccccc2oc1=O` [3-ACETYLCOUMARIN], the Activity in the assay with Mus musculus [1] is 66%. Take `Cc1cc(=O)oc2cc(O)cc(O)c12` [5,7-DIHYDROXY-4-METHYLCOUMARIN]: in the assay on Mus musculus [1], the Activity turned out to be 45%. In the case of `CC1(C)[C@@H](OC(=O)CCC(=O)O)CC[C@]2(C)[C@H]3C(=O)C=C4[C@@H]5C[C@@](C)(C(=O)O)CC[C@]5(C)CC[C@@]4(C)[C@]3(C)CC[C@@H]12` [CARBENOXOLONE], the Activity in the assay on Mus musculus [2] is recorded as 13.1 mm. With `O=c1ccc2cc(O)c(O)cc2o1` [ESCULETIN], the Activity in the assay on Mus musculus [1] amounted to 17%.

Take `Cc1cc(=O)oc2cc(O)ccc12` [HYMECROMONE]: the Activity with Mus musculus [1] worked out at 31%.

Turning to `COc1ccc2c(c1)c(CC(=O)O)c(C)n2C(=O)c1ccc(Cl)cc1` [INDOMETHACIN], the Activity in the assay with Mus musculus [3] is reported as 41.1 mm.

For the molecule `COC(=O)[C@@H](N)CCCNC(=N)N[N+](=O)[O-]` [L-NAME], in the assay with Mus musculus [4], the Activity came to 35.7 mm.

In the case of `Cc1c(OCC(F)(F)F)ccnc1C[S+]([O-])c1nc2ccccc2[nH]1` (stereo not drawn) [LANSOPRAZOLE], the Activity in the assay with Mus musculus [1] was determined as 74%. For the molecule `CCN1C(=O)C=CC1=O` [N-ETHYLMALEIMIDE], the Activity in the assay with Mus musculus [5] is 40.1 mm.

Turning to `O=c1cc(CN2CCOCC2)c2ccc(O)cc2o1` [OXAZORONE], the Activity in the assay on Mus musculus [1] is listed as 75%; in the assay on Mus musculus [6], 13.6 mm; in the assay with Mus musculus [7], 28.8 mm; in the assay on Mus musculus [8], 34.7 mm; with Mus musculus [9] it was 14.4 mm; in the assay with Mus musculus [10] it was 10.3 mm. With `COc1cc2ccc(=O)oc2cc1O` [SCOPOLETIN], the Activity with Mus musculus [1] is given as 61%.
